Experimental data taken from US9796711B2, “Substituted pyrazolo[3,4-b]pyridin-6-carboxylic acids and method of use” (AbbVie S.àr.l., priority 2015, dated 2017).

How the values were obtained:
ΔF508-CFTR [1] = target: T1, ΔF508-CFTR (Homo sapiens, UniProt P13569, DEL508-508); assay: CFTR cell surface levels using HRP-tagged ΔF508-CFTR expressing CFBE cells, in the presence of a co-corrector; assay type: cell-based
T1 construct: host or cells: CFBE41o-, doxycycline-inducible
How it was run: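 Cells were seeded with 0.5 μg/mL doxycycline and held 68 h at 37 °C. Test compounds plus 3 μM co-corrector (final 0.1% DMSO) were then added for 20 h at 33 °C. Washed cells received HRP substrate, and luminescence was normalized between DMSO and 3 μM co-corrector controls.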

ΔF508-CFTR [2] = target: T1, ΔF508-CFTR; assay: CFTR cell surface levels using HRP-tagged ΔF508-CFTR expressing CFBE cells, intrinsic corrector capacity; assay type: cell-based
How it was run: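 Here the cells express ΔF508-CFTR with horseradish peroxidase inserted in extracellular loop 4, so only rescued channel at the surface gives luminescent signal. Compounds act on their own, 20 h at the reduced temperature of 33 °C; values are percent activity relative to DMSO and a 3 μM corrector.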

[3] = HRP-tagged ΔF508-CFTR expressing CFBE cells, in the presence of 3 μM co-corrector
[4] = HRP-tagged ΔF508-CFTR expressing CFBE cells, intrinsic corrector capacity (no co-corrector), 33° C., 20 hours
[5] = HRP-tagged ΔF508-CFTR expressing CFBE cells, in the presence of 3 μM co-corrector, read-out: EC50
[6] = HRP-tagged ΔF508-CFTR expressing CFBE cells, intrinsic corrector capacity (no co-corrector), 33° C., 20 hours, read-out: EC50
[7] = HRP-tagged ΔF508-CFTR CFBE41o- cells, compounds alone (intrinsic corrector capacity), 20 hours at 33° C., positive control 3 μM corrector
[8] = HRP-tagged ΔF508-CFTR CFBE41o- cells, compounds alone (intrinsic corrector capacity), 20 hours at 33° C., read-out: EC50

T1 sequence (P13569 with tags, fused parts or gaps DEL508-508): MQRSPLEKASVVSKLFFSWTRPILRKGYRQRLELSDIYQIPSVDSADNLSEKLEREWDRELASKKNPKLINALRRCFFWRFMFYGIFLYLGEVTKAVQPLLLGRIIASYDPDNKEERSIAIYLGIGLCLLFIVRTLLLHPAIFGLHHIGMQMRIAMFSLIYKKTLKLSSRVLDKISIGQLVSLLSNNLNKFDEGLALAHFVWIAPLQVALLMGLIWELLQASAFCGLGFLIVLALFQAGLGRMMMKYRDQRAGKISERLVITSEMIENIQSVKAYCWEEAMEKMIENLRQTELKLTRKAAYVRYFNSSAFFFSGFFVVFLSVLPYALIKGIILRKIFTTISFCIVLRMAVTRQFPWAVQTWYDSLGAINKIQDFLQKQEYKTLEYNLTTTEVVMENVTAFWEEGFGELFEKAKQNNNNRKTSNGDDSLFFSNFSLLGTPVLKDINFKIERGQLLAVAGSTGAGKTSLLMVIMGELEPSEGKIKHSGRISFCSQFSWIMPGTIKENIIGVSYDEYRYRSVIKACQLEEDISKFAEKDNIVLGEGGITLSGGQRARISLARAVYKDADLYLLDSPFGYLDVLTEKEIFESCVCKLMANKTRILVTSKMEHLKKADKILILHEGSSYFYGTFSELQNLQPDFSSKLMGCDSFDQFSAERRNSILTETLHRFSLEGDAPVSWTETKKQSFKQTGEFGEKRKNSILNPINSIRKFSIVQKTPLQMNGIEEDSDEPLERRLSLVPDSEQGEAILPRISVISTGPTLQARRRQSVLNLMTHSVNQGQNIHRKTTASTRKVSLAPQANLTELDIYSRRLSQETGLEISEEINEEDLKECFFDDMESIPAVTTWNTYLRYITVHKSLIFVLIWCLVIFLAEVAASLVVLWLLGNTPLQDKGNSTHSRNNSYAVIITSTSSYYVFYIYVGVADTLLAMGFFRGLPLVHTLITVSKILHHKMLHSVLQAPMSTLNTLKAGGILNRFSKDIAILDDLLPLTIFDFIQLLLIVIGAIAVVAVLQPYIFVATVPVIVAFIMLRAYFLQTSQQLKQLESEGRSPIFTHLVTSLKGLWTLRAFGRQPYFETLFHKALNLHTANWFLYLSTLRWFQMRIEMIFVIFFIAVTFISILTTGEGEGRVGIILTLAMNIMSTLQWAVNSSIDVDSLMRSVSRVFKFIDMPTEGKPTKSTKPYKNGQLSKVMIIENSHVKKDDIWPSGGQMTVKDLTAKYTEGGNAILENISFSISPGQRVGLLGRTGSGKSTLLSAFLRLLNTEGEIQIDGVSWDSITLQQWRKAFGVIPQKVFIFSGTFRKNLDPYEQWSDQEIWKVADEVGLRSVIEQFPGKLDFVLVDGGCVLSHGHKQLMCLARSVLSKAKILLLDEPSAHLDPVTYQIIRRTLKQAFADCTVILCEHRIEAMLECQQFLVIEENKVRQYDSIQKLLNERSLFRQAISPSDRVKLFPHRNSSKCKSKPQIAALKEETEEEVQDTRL

SMILES | EC50 (ΔF508-CFTR [1]) | % Activation (ΔF508-CFTR [1]; [3]) | EC50 (ΔF508-CFTR [2]) | % Activation (ΔF508-CFTR [2]; [4]) | EC50 (ΔF508-CFTR [1]; [5]) | EC50 (ΔF508-CFTR [2]; [6]) | % Activation (ΔF508-CFTR [2]; [7]) | EC50 (ΔF508-CFTR [2]; [8]) | % Activation (ΔF508-CFTR [2]; HRP-tagged ΔF508-CFTR CFBE cells, compound alone (intrinsic corrector capacity), 20 hours at 33° C.) | EC50 (ΔF508-CFTR [2]; HRP-tagged ΔF508-CFTR CFBE cells, compound alone (intrinsic corrector capacity), 20 hours at 33° C., read-out: EC50)
CC(C)(C)OC(=O)NC[C@H]1CCN(c2cc(C(=O)O)nc3c2c(C2CCC2)nn3-c2ccccc2)C1 [compound 672, 4-[(3R)-3-{[(tert-butoxycarbonyl)amino]methyl}pyrrolidin-1-yl]-3-cyclobutyl-1-phenyl-1H-pyrazolo[3,4-b]pyridine-6-carboxylic acid] | 553 nM | 343.15% | 748 nM | 141.6% |  |  |  |  |  | 
O=C(O)c1cc(N2CCC(N3CCOCC3)CC2)c2c(C3CCC3)nn(-c3ccnc(OC(F)F)c3)c2n1 [compound 889, 3-cyclobutyl-1-[2-(difluoromethoxy)pyridin-4-yl]-4-[4-(morpholin-4-yl)piperidin-1-yl]-1H-pyrazolo[3,4-b]pyridine-6-carboxylic acid] |  | 449.8% |  | 229.2% | 241 nM | 404 nM |  |  |  | 
Cc1nn(-c2ccccc2)c2nc(C(=O)O)cc(O[C@H]3C[C@@H](N4CCS(=O)(=O)CC4)C3)c12 [compound 333, 4-{[cis-3-(1,1-dioxo-1λ^6,4-thiazinan-4-yl)cyclobutyl]oxy}-3-methyl-1-phenyl-1H-pyrazolo[3,4-b]pyridine-6-carboxylic acid] |  | 150.85% |  |  | 4110 nM |  | 27.26% | 4170 nM |  | 
CC(C)c1nn(-c2ccc(F)cc2)c2nc(C(=O)O)cc(OCC3(C)CC(F)(F)C3)c12 [compound 652, 4-[(3,3-difluoro-1-methylcyclobutyl)methoxy]-1-(4-fluorophenyl)-3-(propan-2-yl)-1H-pyrazolo[3,4-b]pyridine-6-carboxylic acid] |  | 310.6% |  | 130.6% | 203 nM | 334 nM |  |  |  | 
Cc1nn(-c2ccccc2)c2nc(C(=O)O)cc(OC3COC3)c12 [compound 341, 3-methyl-4-[(oxetan-3-yl)oxy]-1-phenyl-1H-pyrazolo[3,4-b]pyridine-6-carboxylic acid] |  | 149.55% |  |  | 4090 nM |  | 25.115% | 4170 nM |  | 
O=C(O)c1cc(N2CCC(N3CCCC(F)C3)CC2)c2c(C3CCC3)nn(-c3ccc(F)cc3)c2n1 (centres unmarked) [compound 872, 3-cyclobutyl-4-(3-fluoro[1,4′-bipiperidin]-1′-yl)-1-(4-fluorophenyl)-1H-pyrazolo[3,4-b]pyridine-6-carboxylic acid] |  | 548.45% |  | 368.7% | 172 nM | 591 nM |  |  |  | 
O=C(O)c1cc(N2CCC(N3CCOCC3)CC2)c2c(C3CCC3)nn(-c3ccc(OCCF)nc3)c2n1 [compound 917] |  | 306.95% |  |  | 1670 nM |  |  |  | 116.67% | 1660 nM
O=C(O)c1cc(N2CCN(CC3OCCO3)CC2)c2c(C3CCC3)nn(-c3ccccc3)c2n1 [compound 684, 3-cyclobutyl-4-{4-[(1,3-dioxolan-2-yl)methyl]piperazin-1-yl}-1-phenyl-1H-pyrazolo[3,4-b]pyridine-6-carboxylic acid] |  | 384.65% |  | 230.2% | 236 nM | 380 nM |  |  |  | 
CCOCC1(F)CCCN(c2cc(C(=O)O)nc3c2c(C2CCC2)nn3-c2ccccc2)C1 (centres unmarked) [compound 460, 3-cyclobutyl-4-[3-(ethoxymethyl)-3-fluoropiperidin-1-yl]-1-phenyl-1H-pyrazolo[3,4-b]pyridine-6-carboxylic acid] |  | 322.2% |  | 138.15% | 328 nM | 642 nM |  |  |  | 
O=C(O)c1cc(-c2ccc(N3CCOCC3)cc2)c2c(C3CCC3)nn(-c3ccc(F)c(F)c3)c2n1 [compound 350, 3-cyclobutyl-1-(3,4-difluorophenyl)-4-[4-(morpholin-4-yl)phenyl]-1H-pyrazolo[3,4-b]pyridine-6-carboxylic acid] |  | 397.5% |  |  | 316 nM |  | 211% | 426 nM |  | 
CC(C)N1CNC(=O)C12CCN(c1cc(C(=O)O)nc3c1c(C1CCC1)nn3-c1ccccc1)CC2 [compound 469, 3-cyclobutyl-4-[4-oxo-1-(propan-2-yl)-1,3,8-triazaspiro[4.5]decan-8-yl]-1-phenyl-1H-pyrazolo[3,4-b]pyridine-6-carboxylic acid] |  | 360.3% |  | 198.95% | 716 nM | 1120 nM |  |  |  | 
Cc1cccc(-n2nc(C(C)C)c3c(N4CC5(CCC5)C4)cc(C(=O)O)nc32)c1 [compound 273, 4-(2-azaspiro[3.3]heptan-2-yl)-1-(3-methylphenyl)-3-(propan-2-yl)-1H-pyrazolo[3,4-b]pyridine-6-carboxylic acid] |  | 311.05% |  |  | 985 nM |  | 100.16% | 1020 nM |  | 
COCC1CCN(c2cc(C(=O)O)nc3c2c(C(C)C)nn3-c2ccc(F)cc2)CC1 [compound 391, 1-(4-fluorophenyl)-4-[4-(methoxymethyl)piperidin-1-yl]-3-(propan-2-yl)-1H-pyrazolo[3,4-b]pyridine-6-carboxylic acid] |  | 528.7% |  |  | 374 nM |  | 306.23% | 590 nM |  | 
COC1CCN(c2cc(C(=O)O)nc3c2c(C(C)C)nn3-c2cccc(N(C)C)c2)CC1 [compound 330, 1-[3-(dimethylamino)phenyl]-4-(4-methoxypiperidin-1-yl)-3-(propan-2-yl)-1H-pyrazolo[3,4-b]pyridine-6-carboxylic acid] |  | 509.93% |  |  | 197 nM |  | 326.43% | 405 nM |  | 
CC(=O)Nc1ccc(-c2cc(C(=O)O)nc3c2c(C(C)C)nn3C2CCCCC2)cc1 [compound 171, 4-(4-acetamidophenyl)-1-cyclohexyl-3-(propan-2-yl)-1H-pyrazolo[3,4-b]pyridine-6-carboxylic acid] |  | 450.73% |  |  | 1070 nM |  | 199.67% | 1190 nM |  | 
CC(C)c1nn(-c2cccc(C(F)(F)F)c2)c2nc(C(=O)O)cc(-c3cnc(N(C)C4CCOCC4)nc3)c12 [compound 281, 4-{2-[methyl(oxan-4-yl)amino]pyrimidin-5-yl}-3-(propan-2-yl)-1[3-(trifluoromethyl)phenyl]-1H-pyrazolo[3,4-b]pyridine-6-carboxylic acid] |  | 425.85% |  |  | 908 nM |  | 226.7% | 1290 nM |  | 
Cc1nn(-c2ccccc2)c2nc(C(=O)O)cc(OC3CCN(C)CC3)c12 [compound 339, 3-methyl-4-[(1-methylpiperidin-4-yl)oxy]-1-phenyl-1H-pyrazolo[3,4-b]pyridine-6-carboxylic acid] |  | 126.85% |  |  | 7500 nM |  | 15.162% | 7500 nM |  | 
CN1CC[C@@H](Oc2cc(C(=O)O)nc3c2c(C2CCC2)nn3-c2ccccc2)C1 [compound 650, 3-cyclobutyl-4-{[(3R)-1-methylpyrrolidin-3-yl]oxy}-1-phenyl-1H-pyrazolo[3,4-b]pyridine-6-carboxylic acid] |  | 193.6% |  | 45.88% | 3330 nM | 3330 nM |  |  |  | 
CC(C)c1nn(C2CCCCC2)c2nc(C(=O)O)cc(-c3ccnn3C)c12 [compound 370, 1-cyclohexyl-4-(1-methyl-1H-pyrazol-5-yl)-3-(propan-2-yl)-1H-pyrazolo[3,4-b]pyridine-6-carboxylic acid] |  | 133% |  |  | > 10000 nM |  | 19.18% | > 10000 nM |  | 
CN(c1ccc(-c2cc(C(=O)O)nc3c2c(C2CCC2)nn3-c2cccc(N3CCCC3)c2)cn1)C1CCOCC1 [compound 252, 3-cyclobutyl-4-{6-[methyl(oxan-4-yl)amino]pyridin-3-yl}-1-[3-(pyrrolidin-1-yl)phenyl]-1H-pyrazolo[3,4-b]pyridine-6-carboxylic acid] |  | 630.25% |  |  | 505 nM |  | 398.4% | 698 nM |  | 
COC1CCN(c2cc(C(=O)O)nc3c2c(C(C)C)nn3-c2ccnc(N3CCCC3)c2)CC1 [compound 412, 4-(4-methoxypiperidin-1-yl)-3-(propan-2-yl)-1-[2-(pyrrolidin-1-yl)pyridin-4-yl]-1H-pyrazolo[3,4-b]pyridine-6-carboxylic acid] |  | 387.2% |  | 215.6% | 307 nM | 460 nM |  |  |  | 
COC(=O)N1CCN(c2ccc(-c3cc(C(=O)O)nc4c3c(C)nn4-c3ccccc3)cc2)CC1 [compound 70, 4-{4-[4-(methoxycarbonyl)piperazin-1-yl]phenyl}-3-methyl-1-phenyl-1H-pyrazolo[3,4-b]pyridine-6-carboxylic acid] |  | 355.6% |  |  | 649 nM |  | 160.8% | 910 nM |  | 
O=C(O)c1cc(OCC2CCCCC2)c2c(C3CCC3)nn(-c3ccccc3)c2n1 [compound 407, 3-cyclobutyl-4-(cyclohexylmethoxy)-1-phenyl-1H-pyrazolo[3,4-b]pyridine-6-carboxylic acid] |  | 323.95% |  | 125.25% | 662 nM | 925 nM |  |  |  | 
